PubChem BioAssay (NCI)
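Where inhibition never reached the appropriate level, the endpoint shown equals the highest concentration tested. Otherwise, values were interpolated linearly from a five-concentration, 48-hour dose response in 96-well plates. At the GI50, growth is halved. TGI: total growth inhibition.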 Where a SMILES comes first, the peptide text is derived from it. Side-chain parts run from the residue outwards. The star is where a group is joined. Cbz = O=C(OCc1ccccc1)*; Boc = CC(C)(C)OC(=O)*

Legend:
Experiment in all cases: NCI tumour cell line growth inhibition, 48 h
MDA-N = system: MDA-N
NCI-H460 lung = system: NCI-H460 lung
OVCAR-4 ovarian = system: OVCAR-4 ovarian
UACC-257 melanoma = system: UACC-257 melanoma
SK-MEL-28 melanoma = system: SK-MEL-28 melanoma
DU-145 prostate = system: DU-145 prostate
A549 NSCLC = system: A549 NSCLC
UO-31 renal = system: UO-31 renal
RPMI-8226 leukemia = system: RPMI-8226 leukemia
HS 578T breast = system: HS 578T breast

Row | Structure (SMILES) | TGI (MDA-N) [µM] | TGI (NCI-H460 lung) [µM] | TGI (OVCAR-4 ovarian) [µM] | TGI (UACC-257 melanoma) [µM] | TGI (SK-MEL-28 melanoma) [µM] | TGI (DU-145 prostate) [µM] | TGI (A549 NSCLC) [µM] | TGI (UO-31 renal) [µM] | TGI (RPMI-8226 leukemia) [µM] | TGI (HS 578T breast) [µM] | GI50 (NCI-H460 lung) [µM] | GI50 (OVCAR-4 ovarian) [µM] | GI50 (UACC-257 melanoma) [µM] | GI50 (SK-MEL-28 melanoma) [µM] | GI50 (RPMI-8226 leukemia) [µM] | GI50 (DU-145 prostate) [µM] | GI50 (A549 NSCLC) [µM] | GI50 (UO-31 renal) [µM] | GI50 (HS 578T breast) [µM]
1 | CCCCCCCCCCCCCCCCCCNC(=S)/N=C/c1c(O)cc(C)oc1=O | > 100 | > 100 | 80 | 65.3 | > 100 | > 100 | 69.5 | 39.4 | – | – | – | – | – | – | – | – | – | – | –
2 | CC(C(O)c1ccccc1)[N+](=O)[O-] (centres undefined) | – | > 100 | 52.6 | 31.7 | 41.5 | 35.5 | 40 | 20.6 | 47.5 | 98.7 | – | – | – | – | – | – | – | – | –
3 | CC(C)CC(NC(=O)OCc1ccccc1)C(=O)NCCCCC(NC(=O)C(CCCCNC(=O)C(CC(C)C)NC(=O)OCc1ccccc1)NC(=O)C(CCCCNC(=O)C(CC(C)C)NC(=O)OCc1ccccc1)NC(=O)C(CCCCNC(=O)C(CC(C)C)NC(=O)OCc1ccccc1)NC(=O)OC(C)(C)C)C(=O)O (centres undefined) (Boc-K([Leu-Cbz])K([Leu-Cbz])K([Leu-Cbz])K([Leu-Cbz])-OH; configuration not given here) | > 25 | > 25 | > 25 | > 25 | > 25 | > 25 | > 25 | > 25 | > 25 | – | – | – | – | – | – | – | – | – | –
4 | Cc1ccc(-c2nc3n(c2/C=N\N=C(N)N)CCS3)cc1 | – | 32 | 30.3 | 30.5 | 29.4 | 26.8 | 29.5 | 30.5 | 68.8 | 41.4 | – | – | – | – | – | – | – | – | –
5 | CC(Nc1cc(=O)n(C)c(=O)[nH]1)c1ccccc1 (centres undefined) | > 100 | > 100 | > 100 | > 100 | > 100 | > 100 | > 100 | > 100 | – | > 100 | – | – | – | – | – | – | – | – | –
6 | CCNC(=O)CCCCC(=O)c1c(C)[nH]c(/C=C2\N=C(c3ccc[nH]3)C=C2OC)c1C | – | 4.19 | 4.36 | 26.1 | 3.09 | 11 | 21.4 | 4.51 | > 100 | 4.92 | 1.95 | 1.76 | 6.41 | 1.66 | 2.79 | 3.01 | 4.72 | 2.03 | 2.04
7 | CCCCCCCCC[C@@H]1C[C@@H]2CCC3C(C(=O)OCCCCNC(=O)OCc4ccccc4)=C(C)NC(=N1)N32 (some centres undefined) | – | 13.3 | 21.3 | 12.2 | 13.5 | 21 | 23.3 | 13.7 | 4.44 | 5.48 | – | – | – | – | – | – | – | – | –
8 | CCOC(=O)c1[nH]n(-c2ccccc2)c(=O)c1C=NC(=S)C(N)=S | > 100 | > 100 | > 100 | > 100 | > 100 | > 100 | > 100 | 42.2 | – | > 100 | – | – | – | – | – | – | – | – | –
9 | N#CCCCCC12C3C(=O)N(c4ccccc4)C(=O)C3ON1O[C@@H]1C(=O)N(c3ccccc3)C(=O)[C@@H]12 (some centres undefined) | > 100 | > 100 | > 100 | > 100 | > 100 | > 100 | > 100 | > 100 | – | > 100 | – | – | – | – | – | – | – | – | –
10 | CCOC(=O)CC(=Nc1cc(C)on1)N(CC)CC | – | > 100 | – | – | > 100 | – | > 100 | > 100 | > 100 | – | – | – | – | – | – | – | – | – | –
11 | Cc1ccc(C(=O)NC(C)C)cc1N=NN(C)C | – | > 100 | > 100 | > 100 | > 100 | – | > 100 | > 100 | – | – | – | – | – | – | – | – | – | – | –
12 | COC(=O)C(Cc1ccccc1)NC(=O)C(CCCN=C(N)N)NC(=O)OCc1ccccc1 (centres undefined) | > 100 | > 100 | > 100 | – | > 100 | > 100 | > 100 | > 100 | > 100 | > 100 | – | – | – | – | – | – | – | – | –
13 | O=C(Nc1cc([N+](=O)[O-])cc([N+](=O)[O-])c1)OC1C2CCC1C1OC1C2 (centres undefined) | – | > 50 | > 50 | > 50 | > 50 | – | > 50 | > 50 | > 50 | – | – | – | – | – | – | – | – | – | –
14 | COc1ccc2c(c1)Cc1c-2[nH]c2cc3c(cc2c1=O)OCO3 | – | 35 | > 100 | – | 53.8 | – | > 100 | 89 | 35.8 | – | – | – | – | – | – | – | – | – | –
15 | Cc1cc(NS(=O)(=O)c2ccc(NC(=O)c3cccc4c(NNc5ccc(S(N)(=O)=O)cc5)c5ccccc5nc34)cc2)no1 | > 100 | > 100 | > 100 | > 100 | 89 | > 100 | > 100 | > 100 | > 100 | – | – | – | – | – | – | – | – | – | –
16 | O=C(O)C1(CC(CCCN2CCCCC2)c2ccccc2)CCCC1 (centres undefined) | > 100 | > 100 | > 100 | – | > 100 | > 100 | > 100 | > 100 | > 100 | > 100 | – | – | – | – | – | – | – | – | –
17 | CC(C)(CO)NC(=O)c1cccc(C(=O)NC(C)(C)CO)c1Br | – | > 100 | > 100 | > 100 | > 100 | > 100 | > 100 | > 100 | > 100 | – | – | – | – | – | – | – | – | – | –
18 | Cc1noc(C)c1N=Nc1ccc2nonc2c1N | > 100 | > 100 | > 100 | > 100 | > 100 | > 100 | > 100 | > 100 | > 100 | – | – | – | – | – | – | – | – | – | –
19 | CCN(CC)CCNC(=O)c1cc2cc(NC(=O)c3cc4cc(NC(=O)c5cc6cc([N+](=O)[O-])ccc6[nH]5)ccc4[nH]3)ccc2[nH]1 | – | > 100 | > 100 | > 100 | > 100 | > 100 | > 100 | > 100 | > 100 | > 100 | – | – | – | – | – | – | – | – | –
20 | Cc1cc(O)c(/C=N/C(=O)NN)c(=O)o1 | > 100 | > 100 | > 100 | > 100 | > 100 | > 100 | > 100 | > 100 | – | > 100 | – | – | – | – | – | – | – | – | –
21 | C[n+]1c(-c2ccc(/C=N/Nc3n[nH]c(=S)n3N/N=C/c3ccc(-c4cn5ccccc5[n+]4C)cc3)cc2)cn2ccccc21 | > 100 | > 100 | > 100 | > 100 | > 100 | – | > 100 | > 100 | > 100 | > 100 | – | – | – | – | – | – | – | – | –
